In PubChem BioAssay (NCI):
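Five compound concentrations were applied to cells in 96-well plates for 48 hours; endpoints were derived by simple linear interpolation of the resulting dose-response curve. TGI is the concentration that stops growth completely.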

Columns and labels:
Assay in all cases: inhibition of tumour cell growth, NCI panel, 48 h
SR leukemia = test system: SR leukemia
SN12C renal = test system: SN12C renal
ACHN renal = test system: ACHN renal
HCC-2998 colon = test system: HCC-2998 colon
A498 renal = test system: A498 renal
KM12 colon = test system: KM12 colon
SK-MEL-28 melanoma = test system: SK-MEL-28 melanoma
HOP-92 NSCLC = test system: HOP-92 NSCLC
LOX IMVI melanoma = test system: LOX IMVI melanoma
NCI-H460 lung = test system: NCI-H460 lung
MDA-MB-435 = test system: MDA-MB-435
SF-539 CNS = test system: SF-539 CNS
UACC-257 melanoma = test system: UACC-257 melanoma
COLO 205 colon = test system: COLO 205 colon
HS 578T breast = test system: HS 578T breast
OVCAR-4 ovarian = test system: OVCAR-4 ovarian
NCI-H226 lung = test system: NCI-H226 lung
T-47D breast = test system: T-47D breast
OVCAR-3 ovarian = test system: OVCAR-3 ovarian
M14 melanoma = test system: M14 melanoma
TK-10 renal = test system: TK-10 renal
HL-60(TB) leukemia = test system: HL-60(TB) leukemia
HT29 colon = test system: HT29 colon
HOP-62 NSCLC = test system: HOP-62 NSCLC
NCI-H23 lung = test system: NCI-H23 lung
K-562 leukemia = test system: K-562 leukemia
OVCAR-8 ovarian = test system: OVCAR-8 ovarian
DU-145 prostate = test system: DU-145 prostate
MDA-N = test system: MDA-N
SNB-19 CNS = test system: SNB-19 CNS
IGROV1 ovarian = test system: IGROV1 ovarian
HCT-15 colon = test system: HCT-15 colon
U251 CNS = test system: U251 CNS
PC-3 prostate = test system: PC-3 prostate
NCI/ADR-RES ovarian = test system: NCI/ADR-RES ovarian
SK-MEL-2 melanoma = test system: SK-MEL-2 melanoma
UO-31 renal = test system: UO-31 renal
MDA-MB-231 breast = test system: MDA-MB-231 breast
A549 NSCLC = test system: A549 NSCLC
CAKI-1 renal = test system: CAKI-1 renal
SF-268 CNS = test system: SF-268 CNS
RPMI-8226 leukemia = test system: RPMI-8226 leukemia
BT-549 breast = test system: BT-549 breast
UACC-62 melanoma = test system: UACC-62 melanoma
MOLT-4 leukemia = test system: MOLT-4 leukemia
OVCAR-5 ovarian = test system: OVCAR-5 ovarian
HCT-116 colon = test system: HCT-116 colon
SNB-75 CNS = test system: SNB-75 CNS
EKVX NSCLC = test system: EKVX NSCLC
MALME-3M melanoma = test system: MALME-3M melanoma
CCRF-CEM leukemia = test system: CCRF-CEM leukemia
RXF 393 renal = test system: RXF 393 renal
SK-MEL-5 melanoma = test system: SK-MEL-5 melanoma
MCF7 breast = test system: MCF7 breast
SK-OV-3 ovarian = test system: SK-OV-3 ovarian
SW-620 colon = test system: SW-620 colon
NCI-H522 lung = test system: NCI-H522 lung
786-0 renal = test system: 786-0 renal
SF-295 CNS = test system: SF-295 CNS

CC(C)C[C@@H](NC(=O)[C@@H](Cc1cccc2ccccc12)NC(=O)N1CCOCC1)B(O)O
TGI (SR leukemia): > 100 µM
TGI (SN12C renal): > 100 µM
TGI (ACHN renal): > 100 µM
TGI (HCC-2998 colon): > 100 µM
TGI (A498 renal): 93.8 µM
TGI (KM12 colon): > 100 µM
TGI (SK-MEL-28 melanoma): 64.1 µM
TGI (HOP-92 NSCLC): > 100 µM
TGI (LOX IMVI melanoma): > 100 µM
TGI (NCI-H460 lung): > 100 µM
TGI (MDA-MB-435): 42.9 µM
TGI (SF-539 CNS): > 100 µM
TGI (UACC-257 melanoma): > 100 µM
TGI (COLO 205 colon): > 100 µM
TGI (HS 578T breast): > 100 µM
TGI (OVCAR-4 ovarian): > 100 µM
TGI (NCI-H226 lung): 36.8 µM
TGI (T-47D breast): > 100 µM
TGI (OVCAR-3 ovarian): 85.8 µM
TGI (M14 melanoma): 78.7 µM
TGI (TK-10 renal): 90.7 µM
TGI (HL-60(TB) leukemia): > 100 µM
TGI (HT29 colon): > 100 µM
TGI (HOP-62 NSCLC): > 100 µM
TGI (NCI-H23 lung): > 100 µM
TGI (K-562 leukemia): > 100 µM
TGI (OVCAR-8 ovarian): > 100 µM
TGI (DU-145 prostate): > 100 µM
TGI (MDA-N): 41.8 µM
TGI (SNB-19 CNS): > 100 µM
TGI (IGROV1 ovarian): > 100 µM
TGI (HCT-15 colon): > 100 µM
TGI (U251 CNS): > 100 µM
TGI (PC-3 prostate): > 100 µM
TGI (NCI/ADR-RES ovarian): > 100 µM
TGI (SK-MEL-2 melanoma): > 100 µM
TGI (UO-31 renal): > 100 µM
TGI (MDA-MB-231 breast): > 100 µM
TGI (A549 NSCLC): > 100 µM
TGI (CAKI-1 renal): > 100 µM
TGI (SF-268 CNS): > 100 µM
TGI (RPMI-8226 leukemia): > 100 µM
TGI (BT-549 breast): > 100 µM
TGI (UACC-62 melanoma): > 100 µM
TGI (MOLT-4 leukemia): 96.5 µM
TGI (OVCAR-5 ovarian): > 100 µM
TGI (HCT-116 colon): > 100 µM

O=C1OC(c2ccccc2)=N/C1=C\c1ccc(Br)cc1
TGI (SR leukemia): > 100 µM
TGI (SN12C renal): > 100 µM
TGI (ACHN renal): > 100 µM
TGI (HCC-2998 colon): > 100 µM
TGI (A498 renal): > 100 µM
TGI (KM12 colon): > 100 µM
TGI (SNB-75 CNS): > 100 µM
TGI (SK-MEL-28 melanoma): > 100 µM
TGI (HOP-92 NSCLC): > 100 µM
TGI (LOX IMVI melanoma): > 100 µM
TGI (EKVX NSCLC): > 100 µM
TGI (NCI-H460 lung): > 100 µM
TGI (MDA-MB-435): > 100 µM
TGI (SF-539 CNS): > 100 µM
TGI (UACC-257 melanoma): > 100 µM
TGI (COLO 205 colon): > 100 µM
TGI (MALME-3M melanoma): > 100 µM
TGI (CCRF-CEM leukemia): > 100 µM
TGI (RXF 393 renal): > 100 µM
TGI (HS 578T breast): > 100 µM
TGI (OVCAR-4 ovarian): > 100 µM
TGI (NCI-H226 lung): > 100 µM
TGI (T-47D breast): > 100 µM
TGI (OVCAR-3 ovarian): > 100 µM
TGI (M14 melanoma): > 100 µM
TGI (TK-10 renal): > 100 µM
TGI (HL-60(TB) leukemia): > 100 µM
TGI (HT29 colon): > 100 µM
TGI (HOP-62 NSCLC): > 100 µM
TGI (NCI-H23 lung): > 100 µM
TGI (SK-MEL-5 melanoma): > 100 µM
TGI (K-562 leukemia): > 100 µM
TGI (OVCAR-8 ovarian): > 100 µM
TGI (DU-145 prostate): > 100 µM
TGI (MCF7 breast): > 100 µM
TGI (MDA-N): > 100 µM
TGI (SNB-19 CNS): > 100 µM
TGI (IGROV1 ovarian): > 100 µM
TGI (HCT-15 colon): > 100 µM
TGI (U251 CNS): > 100 µM
TGI (SK-OV-3 ovarian): > 100 µM
TGI (PC-3 prostate): > 100 µM
TGI (SK-MEL-2 melanoma): > 100 µM
TGI (MDA-MB-231 breast): > 100 µM
TGI (A549 NSCLC): > 100 µM
TGI (CAKI-1 renal): > 100 µM
TGI (SW-620 colon): > 100 µM
TGI (SF-268 CNS): > 100 µM
TGI (RPMI-8226 leukemia): > 100 µM
TGI (BT-549 breast): > 100 µM
TGI (UACC-62 melanoma): > 100 µM
TGI (NCI-H522 lung): > 100 µM
TGI (786-0 renal): > 100 µM
TGI (MOLT-4 leukemia): > 100 µM
TGI (SF-295 CNS): > 100 µM
TGI (OVCAR-5 ovarian): > 100 µM
TGI (HCT-116 colon): > 100 µM

CCOC(=O)C(=Cc1ccccc1Cl)C(=O)OCC
TGI (SR leukemia): > 10 µM
TGI (SN12C renal): 3.91 µM
TGI (ACHN renal): 7.62 µM
TGI (HCC-2998 colon): > 10 µM
TGI (A498 renal): 5 µM
TGI (KM12 colon): 2.67 µM
TGI (SNB-75 CNS): 0.617 µM
TGI (SK-MEL-28 melanoma): 3.53 µM
TGI (HOP-92 NSCLC): 4.96 µM
TGI (LOX IMVI melanoma): 4.5 µM
TGI (EKVX NSCLC): 7.39 µM
TGI (NCI-H460 lung): 7.22 µM
TGI (MDA-MB-435): 3.29 µM
TGI (SF-539 CNS): 4.13 µM
TGI (UACC-257 melanoma): 3.21 µM
TGI (COLO 205 colon): 3.02 µM
TGI (MALME-3M melanoma): 3.58 µM
TGI (CCRF-CEM leukemia): 4.69 µM
TGI (RXF 393 renal): 3.78 µM
TGI (HS 578T breast): > 10 µM
TGI (OVCAR-4 ovarian): 5.05 µM
TGI (NCI-H226 lung): 5.56 µM
TGI (T-47D breast): 8.86 µM
TGI (OVCAR-3 ovarian): 2.76 µM
TGI (M14 melanoma): 2.95 µM
TGI (HL-60(TB) leukemia): 3.83 µM
TGI (HT29 colon): 3.3 µM
TGI (HOP-62 NSCLC): 4.05 µM
TGI (NCI-H23 lung): 3.83 µM
TGI (SK-MEL-5 melanoma): 3.6 µM
TGI (K-562 leukemia): 5.28 µM
TGI (OVCAR-8 ovarian): 2.12 µM
TGI (DU-145 prostate): 3.96 µM
TGI (MDA-N): 4.93 µM
TGI (SNB-19 CNS): 3.53 µM
TGI (IGROV1 ovarian): 7.31 µM
TGI (HCT-15 colon): 4.83 µM
TGI (U251 CNS): 3.07 µM
TGI (SK-OV-3 ovarian): > 10 µM
TGI (PC-3 prostate): 4.3 µM
TGI (NCI/ADR-RES ovarian): 5.97 µM
TGI (SK-MEL-2 melanoma): 4.59 µM
TGI (UO-31 renal): 3.2 µM
TGI (MDA-MB-231 breast): 3.39 µM
TGI (A549 NSCLC): 5.21 µM
TGI (CAKI-1 renal): 4.27 µM
TGI (SW-620 colon): 2.6 µM
TGI (SF-268 CNS): 6.05 µM
TGI (RPMI-8226 leukemia): 4.87 µM
TGI (BT-549 breast): 4.59 µM
TGI (UACC-62 melanoma): 3.67 µM
TGI (NCI-H522 lung): 4.02 µM
TGI (786-0 renal): 2.82 µM
TGI (MOLT-4 leukemia): 6.27 µM
TGI (SF-295 CNS): 6.31 µM
TGI (OVCAR-5 ovarian): 4.13 µM
TGI (HCT-116 colon): 1.88 µM
